In brackets after ≈: the same amount, converted by molar mass. Structures can show the parent of a compound that is named as a salt. Where two headings read alike, the source gives them in different places.
Tests used:
Hygroscopicity = assay type: physicochemical
[1] = man, cited from earlier work
P. mirabilis = assay: Antibacterial activity (MIC); assay type: cell-based; conditions: Proteus mirabilis; strain A-9900
S. faecalis = assay: Antibacterial activity (MIC); assay type: cell-based; conditions: Enterococcus faecalis; strain A20688
S. pyogenes = assay: Antibacterial activity (MIC); assay type: cell-based; conditions: Streptococcus pyogenes; strain A-9604
P. rettgeri = assay: Antibacterial activity (MIC); assay type: cell-based; conditions: Providencia rettgeri; strain A21203
S. aureus = assay: Antibacterial activity (MIC); assay type: cell-based; conditions: Staphylococcus aureus
E. coli = assay: Antibacterial activity (MIC); assay type: cell-based; conditions: Escherichia coli, strain A15119
S. pneumoniae = assay: Antibacterial activity (MIC); assay type: cell-based; conditions: Streptococcus pneumoniae; strain A-9585
S. marcescens = assay: Antibacterial activity (MIC); assay type: cell-based; conditions: Serratia marcescens; strain A20019
E. cloacae = assay: Antibacterial activity (MIC); assay type: cell-based; conditions: Enterobacter cloacae, strain A-9659
B. fragilis = assay: Anti-Bacteroides activity (MIC, agar dilution), alone and in combination with BL-P2013; assay type: cell-based
B. thetaiotaomicron = assay: as above; assay type: cell-based
Protocol: *Minimum inhibitory concentration (MIC) determined by the agar dilution
method using 50X dilutions of 24 hour cultures as inocula dispensed by th
Steer's inoculator. Assay medium composed of Brucella Agar plus 5% laked
sheep blood and 10 mcg/ml vitamin K.

Bacteroides species = assay: as above; assay type: cell-based
in vivo = assay: in vivo; set-up: species or system mice; conditions: mouse, blood, po, 100 mg/kg, Test 3, oral 100 mg/kg, 30 min; read-out: Blood level
Description: Compounds prepared in 5% Propylene Glycol & TweenCMC-H2 O.
Values in parentheses are 95% confidence limits.
Assay Organism: E. coli A9675 (pH = 6.6, 0.1% inoculum)

S. aureus A-9606 = assay: Therapeutic efficacy in mice experimentally infected with a beta-lactamase strain of Staphylococcus aureus (Table 3); assay type: in vivo; conditions: for ED50: Staphylococcus aureus, A9606, challenge 5 × 10^8, read-out: PD50/Treatment
Protocol: Treatment schedule: Drugs administered 0 and 2 hours postinfection.

[2] = tested on: β-lactamase producing strains of E. coli; assay: Therapeutic efficacy of amoxicillin in combinations with BL-P2024 in infected mice (Table 7); assay type: in vivo; conditions: oral
[3] = tested on: β-lactamase producing strains of S. aureus; assay: as above; assay type: in vivo; conditions: Staphylococcus aureus, po, read-out: PD50/Treatment
[4] = tested on: β-lactamase producing strains of S. aureus; assay: animal or person; assay type: in vivo, mice; conditions: Staphylococcus aureus, in Mus musculus, po
Protocol: (§1) Drugs were administered orally at 0 and 2 hours postinfection.
(§2) Drugs were suspended in TCMC.

[5] = tested on: β-lactamase producing strains of E. coli; assay: animal or person; assay type: in vivo, mice; conditions: Escherichia coli, in Mus musculus, po
Protocol: as §1, §2

[6] = strain A21875, β-lactamase +, read-out: MIC
[7] = strain A21916, β-lactamase +, read-out: MIC
[8] = strain A22021, β-lactamase +, read-out: MIC
[9] = strain A22053, β-lactamase +, read-out: MIC
[10] = strain A22697, β-lactamase +, read-out: MIC
[11] = strain A22793, β-lactamase +, read-out: MIC
[12] = strain A22794, β-lactamase +, read-out: MIC
[13] = strain A22798, β-lactamase +, read-out: MIC
[14] = Bacteroides thetaiotaomicron, strain A22277, β-lactamase +, read-out: MIC
[15] = Bacteroides, strain A20927-1, β-lactamase -, read-out: MIC
[16] = Bacteroides, strain A20933, β-lactamase +, read-out: MIC
[17] = Bacteroides, strain A20934, β-lactamase +, read-out: MIC
[18] = Bacteroides, strain A20935, β-lactamase -, read-out: MIC

Structure (SMILES): CC1(CCl)C(C(=O)O)N2C(=O)CC2S1(=O)=O (centres unmarked) [Sodium Salt of BL-P2013]
- hygroscopicity (Hygroscopicity): Non-hygroscopic

Structure (SMILES): CC1(C)S[C@@H]2[C@H](NC(=O)[C@H](N)c3ccccc3)C(=O)N2[C@H]1C(=O)OCOC(=O)[C@@H]1N2C(=O)C[C@H]2S(=O)(=O)C1(C)C [Example 3]
- absorption ([1]; gastro-intestinal tract): excellently absorbed
- blood and tissue levels of antibiotic and β-lactamase inhibitor [1]: high blood and tissue levels
- hydrolysis after absorption [1]: hydrolyzed with simultaneous liberation of the active components

Structure (SMILES): CC1(C)S[C@@H]2[C@H](NC(=O)[C@H](N)c3ccccc3)C(=O)N2[C@H]1C(=O)O [Ampicillin, reference compound]
- MIC (P. mirabilis): 0.13 µg/mL (≈ 0.372 µM)
- MIC (S. faecalis): 0.13 µg/mL (≈ 0.372 µM)
- MIC (S. pyogenes): 0.004 µg/mL (≈ 0.0114 µM)
- MIC (P. rettgeri): 4 µg/mL (≈ 11.4 µM)
- MIC (S. aureus; strain A-9537): 0.16 µg/mL (≈ 0.458 µM)
- MIC (S. aureus; strain A-9537, + 50% serum): 0.06 µg/mL
- MIC (E. coli): 1 µg/mL (≈ 2.86 µM)
- MIC (S. pneumoniae): 0.004 µg/mL (≈ 0.0114 µM)
- MIC (S. marcescens): 16 µg/mL (≈ 45.8 µM)
- MIC (E. cloacae): 63 µg/mL (≈ 180 µM)

Structure (SMILES): NCc1ccccc1CC(=O)N[C@@H]1C(=O)N2C(C(=O)O)=C(CSc3nnnn3CC(=O)O)CS[C@H]12 [Ceforanide]
- MIC (B. fragilis; [6]): 32 µg/mL
- MIC (B. fragilis; [7]): 63 µg/mL
- MIC (B. fragilis; [8]): 32 µg/mL
- MIC (B. fragilis; [9]): 32 µg/mL
- MIC (B. fragilis; strain A22533, β-lactamase +): > 125 µg/mL
- MIC (B. fragilis; strain A22534, β-lactamase +): > 125 µg/mL
- MIC (B. fragilis; strain A22535, β-lactamase +): > 125 µg/mL
- MIC (B. fragilis; strain A22693, β-lactamase +, read-out: MIC): 63 µg/mL
- MIC (B. fragilis; strain A22694, β-lactamase +): 125 µg/mL
- MIC (B. fragilis; strain A22695, β-lactamase +): > 125 µg/mL
- MIC (B. fragilis; strain A22696, β-lactamase +): > 125 µg/mL
- MIC (B. fragilis; [10]): 63 µg/mL
- MIC (B. fragilis; strain A22792, β-lactamase +): > 125 µg/mL
- MIC (B. fragilis; [11]): 32 µg/mL
- MIC (B. fragilis; [12]): 32 µg/mL
- MIC (B. fragilis; strain A22795, β-lactamase +, read-out: MIC): 63 µg/mL
- MIC (B. fragilis; strain A22797, β-lactamase +, read-out: MIC): 63 µg/mL
- MIC (B. fragilis; [13]): 32 µg/mL
- MIC (B. thetaiotaomicron; [14]): 125 µg/mL
- MIC (B. thetaiotaomicron; strain A22279, β-lactamase +): 125 µg/mL
- MIC (Bacteroides species; Bacteroides): 125 µg/mL
- MIC (Bacteroides species; [15]): 0.5 µg/mL
- MIC (Bacteroides species; Bacteroides, strain A20929, β-lactamase +, read-out: MIC): 63 µg/mL
- MIC (Bacteroides species; Bacteroides, strain A20931, β-lactamase +, read-out: MIC): 63 µg/mL
- MIC (Bacteroides species; [16]): 63 µg/mL
- MIC (Bacteroides species; [17]): 32 µg/mL
- MIC (Bacteroides species; [18]): 2 µg/mL
- MIC (Bacteroides species; Bacteroides, strain A21954, β-lactamase +, read-out: MIC): 63 µg/mL
- MIC (Bacteroides species; Bacteroides, strain A21959, β-lactamase +, read-out: MIC): 63 µg/mL

Structure (SMILES): CC1(CCl)C(C(=O)OC2OC(=O)c3ccccc32)N2C(=O)CC2S1(=O)=O (centres unmarked) [BL-P2036]
- concentration at 0.5 h (in vivo): 6700 ng/mL

Structure (SMILES): CC1(C)S[C@@H]2[C@H](NC(=O)[C@H](N)c3ccc(O)cc3)C(=O)N2[C@H]1C(=O)O [Amoxicillin]
- PD50/Treatment (S. aureus A-9606; IM, challenge 7 × 10^8): > 800 mg/kg
- ED50 (S. aureus A-9606; IM): > 800 mg/kg
- ED50 (S. aureus A-9606; PO): > 800 mg/kg
- PD50/Treatment ([2]; E. coli A9675, challenge 6 × 10^5, vehicle TCMC): > 400 mg/kg
- PD50/Treatment ([2]; E. coli A9675, challenge 7 × 10^5, vehicle 50% DMSO): > 100 mg/kg
- PD50/Treatment ([2]; E. coli A9675, challenge 7 × 10^5, vehicle TCMC): > 100 mg/kg
- PD50/Treatment ([2]; E. coli A9675, challenge 9 × 10^5, vehicle 50% DMSO): > 100 mg/kg
- MIC (B. fragilis; [6]): 8 µg/mL
- MIC (B. fragilis; [7]): 8 µg/mL
- MIC (B. fragilis; [8]): 4 µg/mL
- MIC (B. fragilis; [9]): 8 µg/mL
- MIC (B. fragilis; strain A22533, β-lactamase +): > 125 µg/mL
- MIC (B. fragilis; strain A22534, β-lactamase +): > 125 µg/mL
- MIC (B. fragilis; strain A22535, β-lactamase +): > 125 µg/mL
- MIC (B. fragilis; strain A22693, β-lactamase +): 16 µg/mL
- MIC (B. fragilis; strain A22694, β-lactamase +): 16 µg/mL
- MIC (B. fragilis; strain A22695, β-lactamase +): 125 µg/mL
- MIC (B. fragilis; strain A22696, β-lactamase +): > 125 µg/mL
- MIC (B. fragilis; [10]): 8 µg/mL
- MIC (B. fragilis; strain A22792, β-lactamase +): 125 µg/mL
- MIC (B. fragilis; [11]): 8 µg/mL
- MIC (B. fragilis; [12]): 8 µg/mL
- MIC (B. fragilis; strain A22795, β-lactamase +): 16 µg/mL
- MIC (B. fragilis; strain A22797, β-lactamase +): 16 µg/mL
- MIC (B. fragilis; [13]): 8 µg/mL
- ED50 [3]: > 800 mg/kg
- MIC (B. thetaiotaomicron; [14]): 16 µg/mL
- MIC (B. thetaiotaomicron; strain A22279, β-lactamase +): 16 µg/mL
- MIC (Bacteroides species; Bacteroides): 16 µg/mL
- MIC (Bacteroides species; [15]): 0.13 µg/mL
- MIC (Bacteroides species; Bacteroides, strain A20930, β-lactamase +, read-out: MIC): 32 µg/mL
- MIC (Bacteroides species; [16]): 8 µg/mL
- MIC (Bacteroides species; [17]): 8 µg/mL
- MIC (Bacteroides species; [18]): 0.13 µg/mL
- MIC (Bacteroides species; strain A20929, β-lactamase +): 16 µg/mL
- MIC (Bacteroides species; strain A20931, β-lactamase +): 16 µg/mL
- MIC (Bacteroides species; strain A21954, β-lactamase +): 16 µg/mL
- ED50 ([4]; read-out: PD50/Treatment, oral, S. aureus A9606, challenge 2 × 10^9): > 800 mg/kg
- ED50 ([4]; read-out: PD50/Treatment, oral, S. aureus A9606, challenge 7 × 10^8): > 200 mg/kg
- ED50 ([4]; read-out: PD50/Treatment, oral, S. aureus A15091, challenge 4 × 10^8): > 200 mg/kg
- ED50 ([4]; read-out: PD50/Treatment, oral, S. aureus A15091, challenge 5 × 10^8): > 800 mg/kg
- ED50 ([4]; read-out: PD50/Treatment, oral, S. aureus A20379, challenge 5 × 10^8): > 200 mg/kg
- ED50 ([4]; read-out: PD50/Treatment, oral, S. aureus A20379, challenge 6 × 10^8): > 200 mg/kg
- ED50 ([5]; read-out: PD50/Treatment, oral, E. coli A9675, challenge 6 × 10^5): > 400 mg/kg
- ED50 ([5]; read-out: PD50/Treatment, oral, E. coli A9675, challenge 7 × 10^5): > 100 mg/kg
- ED50 ([5]; read-out: PD50/Treatment, oral, E. coli A9675, challenge 8 × 10^5): > 200 mg/kg
- ED50 ([5]; read-out: PD50/Treatment, oral, E. coli A20649, challenge 5 × 10^5): > 200 mg/kg
- ED50 ([5]; read-out: PD50/Treatment, oral, E. coli A20649, challenge 6 × 10^5): > 200 mg/kg
- ED50 ([5]; read-out: PD50/Treatment, oral, E. coli A21223, challenge 6 × 10^5): > 200 mg/kg
- ED50 ([5]; read-out: PD50/Treatment, oral, E. coli A21223, challenge 7 × 10^5 (first line)): > 200 mg/kg
- ED50 ([5]; read-out: PD50/Treatment, oral, E. coli A21223, challenge 7 × 10^5 (third line)): > 200 mg/kg

— patent US4340539A, “Derivatives of 6-bromo penicillanic acid” (priority 1980, dated 1982)
